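Step 1: Grow cells in 96-well plates. Step 2: Expose to compound for 48 hours at 5 concentrations. Step 3: Interpolate endpoints linearly; if unreached, use highest concentration. At the GI50, growth is halved.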 The source made the active and inactive calls. Rule as the data show it: active = GI50 up to about 1.1 µM and inactive = higher.
Assays:
Experiment in all cases: NCI anticancer screen, dose series, 48 h
HCC 2998 = test system: HCC 2998
K562 = test system: K562
NCI-H23 = test system: NCI-H23
MDA-N = test system: MDA-N
Malme-3M = test system: Malme-3M
A549 = test system: A549
HOP-92 = test system: HOP-92
COLO 205 = test system: COLO 205
MOLT-4 = test system: MOLT-4
Hs-578T = test system: Hs-578T
SF-539 = test system: SF-539
U-251 = test system: U-251
IGROV-1 = test system: IGROV-1
CCRF-CEM = test system: CCRF-CEM
KM12 = test system: KM12
SN12C = test system: SN12C
SNB-75 = test system: SNB-75
RXF 393 = test system: RXF 393
CAKI-1 = test system: CAKI-1
MDA-MB-231 = test system: MDA-MB-231
HCT-15 = test system: HCT-15
UO-31 = test system: UO-31
NCI-H226 = test system: NCI-H226
NCI-H522 = test system: NCI-H522
RPMI-8226 = test system: RPMI-8226
BT-549 = test system: BT-549
ACHN = test system: ACHN
SF-268 = test system: SF-268
SNB-19 = test system: SNB-19
SK-MEL-28 = test system: SK-MEL-28
OVCAR-5 = test system: OVCAR-5
UACC-62 = test system: UACC-62
T47D = test system: T47D
SK-MEL-5 = test system: SK-MEL-5
A498 = test system: A498
NCI/ADR-RES = test system: NCI/ADR-RES
OVCAR-8 = test system: OVCAR-8
PC-3 = test system: PC-3
NCI-H460 = test system: NCI-H460
UACC-257 = test system: UACC-257
EKVX = test system: EKVX
MCF7 = test system: MCF7
SK-MEL-2 = test system: SK-MEL-2
HCT-116 = test system: HCT-116
OVCAR-4 = test system: OVCAR-4
TK-10 = test system: TK-10
M14 = test system: M14
LOX IMVI = test system: LOX IMVI
786-0 = test system: 786-0
HT-29 = test system: HT-29
HL-60 = test system: HL-60
SW-620 = test system: SW-620
SR = test system: SR
DU-145 = test system: DU-145
MDA-MB-435 = test system: MDA-MB-435
OVCAR-3 = test system: OVCAR-3
SK-OV-3 = test system: SK-OV-3
SF-295 = test system: SF-295
HOP-62 = test system: HOP-62

Structure (SMILES): N/N=c1\[nH]c2ccccc2o1
- GI50 (HCC 2998): > 100 µM (inactive)
- GI50 (K562): 89.7 µM (inactive)
- GI50 (NCI-H23): > 100 µM (inactive)
- GI50 (MDA-N): > 100 µM (inactive)
- GI50 (Malme-3M): > 100 µM (inactive)
- GI50 (A549): > 100 µM (inactive)
- GI50 (HOP-92): > 100 µM (inactive)
- GI50 (COLO 205): > 100 µM (inactive)
- GI50 (MOLT-4): 24.2 µM (inactive)
- GI50 (Hs-578T): > 100 µM (inactive)
- GI50 (SF-539): > 100 µM (inactive)
- GI50 (U-251): > 100 µM (inactive)
- GI50 (IGROV-1): > 100 µM (inactive)
- GI50 (CCRF-CEM): 31.7 µM (inactive)
- GI50 (KM12): > 100 µM (inactive)
- GI50 (SN12C): > 100 µM (inactive)
- GI50 (SNB-75): > 100 µM (inactive)
- GI50 (RXF 393): > 100 µM (inactive)
- GI50 (CAKI-1): > 100 µM (inactive)
- GI50 (MDA-MB-231): > 100 µM (inactive)
- GI50 (HCT-15): 77.3 µM
- GI50 (UO-31): 93.5 µM (inactive)
- GI50 (NCI-H226): > 100 µM (inactive)
- GI50 (NCI-H522): 57.1 µM (inactive)
- GI50 (RPMI-8226): 67.6 µM (inactive)
- GI50 (BT-549): > 100 µM (inactive)
- GI50 (ACHN): > 100 µM (inactive)
- GI50 (SF-268): > 100 µM (inactive)
- GI50 (SNB-19): > 100 µM (inactive)
- GI50 (SK-MEL-28): > 100 µM (inactive)
- GI50 (OVCAR-5): > 100 µM (inactive)
- GI50 (UACC-62): > 100 µM (inactive)
- GI50 (T47D): 30.1 µM (inactive)
- GI50 (SK-MEL-5): > 100 µM (inactive)
- GI50 (A498): > 100 µM (inactive)
- GI50 (NCI/ADR-RES): 52.7 µM (inactive)
- GI50 (OVCAR-8): 64.6 µM (inactive)
- GI50 (PC-3): > 100 µM (inactive)
- GI50 (NCI-H460): > 100 µM (inactive)
- GI50 (UACC-257): > 100 µM (inactive)
- GI50 (EKVX): > 100 µM (inactive)
- GI50 (MCF7): 88.7 µM (inactive)
- GI50 (SK-MEL-2): > 100 µM (inactive)
- GI50 (HCT-116): 80 µM (inactive)
- GI50 (OVCAR-4): 46.5 µM (inactive)
- GI50 (TK-10): > 100 µM (inactive)
- GI50 (M14): > 100 µM (inactive)
- GI50 (LOX IMVI): > 100 µM (inactive)
- GI50 (786-0): 86.7 µM (inactive)
- GI50 (HT-29): > 100 µM (inactive)
- GI50 (HL-60): 53.6 µM (inactive)
- GI50 (SW-620): > 100 µM (inactive)
- GI50 (SR): 52 µM (inactive)
- GI50 (DU-145): > 100 µM (inactive)
- GI50 (MDA-MB-435): > 100 µM (inactive)

Structure (SMILES): N#Cc1c(C#N)c(-c2ccccc2)n(/N=C\c2ccccc2)c1N
- GI50 (HCC 2998): 19.7 µM (inactive)
- GI50 (K562): 13.2 µM (inactive)
- GI50 (NCI-H23): 24.4 µM (inactive)
- GI50 (MDA-N): 36.1 µM (inactive)
- GI50 (Malme-3M): 29.9 µM (inactive)
- GI50 (A549): 13 µM (inactive)
- GI50 (HOP-92): 20.8 µM (inactive)
- GI50 (COLO 205): 22.5 µM (inactive)
- GI50 (MOLT-4): 5.27 µM (inactive)
- GI50 (Hs-578T): 15.9 µM (inactive)
- GI50 (SF-539): 15.9 µM (inactive)
- GI50 (U-251): 16.5 µM (inactive)
- GI50 (IGROV-1): 15.6 µM (inactive)
- GI50 (CCRF-CEM): 12.3 µM (inactive)
- GI50 (KM12): 26.9 µM (inactive)
- GI50 (SN12C): 47 µM (inactive)
- GI50 (SNB-75): 19.1 µM (inactive)
- GI50 (RXF 393): 17.9 µM (inactive)
- GI50 (CAKI-1): 18.3 µM (inactive)
- GI50 (MDA-MB-231): 16 µM (inactive)
- GI50 (HCT-15): 30.6 µM
- GI50 (UO-31): 19 µM (inactive)
- GI50 (NCI-H226): 20.8 µM (inactive)
- GI50 (NCI-H522): 11.6 µM (inactive)
- GI50 (OVCAR-3): 12.9 µM (inactive)
- GI50 (SK-OV-3): 14.1 µM (inactive)
- GI50 (RPMI-8226): 3.46 µM (inactive)
- GI50 (BT-549): 18.7 µM (inactive)
- GI50 (SF-295): 7.4 µM (inactive)
- GI50 (ACHN): 14.2 µM (inactive)
- GI50 (SF-268): 28.8 µM (inactive)
- GI50 (SNB-19): 30.8 µM (inactive)
- GI50 (OVCAR-5): 29 µM (inactive)
- GI50 (UACC-62): 12.5 µM (inactive)
- GI50 (T47D): 3.37 µM (inactive)
- GI50 (SK-MEL-5): 11.4 µM (inactive)
- GI50 (A498): 23.8 µM (inactive)
- GI50 (NCI/ADR-RES): 11.2 µM (inactive)
- GI50 (OVCAR-8): 18 µM (inactive)
- GI50 (PC-3): 14.4 µM (inactive)
- GI50 (UACC-257): 17.3 µM (inactive)
- GI50 (EKVX): 13.6 µM (inactive)
- GI50 (MCF7): 11.8 µM (inactive)
- GI50 (SK-MEL-2): 22.2 µM (inactive)
- GI50 (HCT-116): 29.4 µM (inactive)
- GI50 (OVCAR-4): 12.9 µM (inactive)
- GI50 (TK-10): 29.4 µM (inactive)
- GI50 (M14): 24.8 µM (inactive)
- GI50 (LOX IMVI): 8.02 µM (inactive)
- GI50 (786-0): 28.1 µM (inactive)
- GI50 (HOP-62): 31.3 µM (inactive)
- GI50 (HT-29): 26.1 µM (inactive)
- GI50 (HL-60): 16.1 µM (inactive)
- GI50 (SW-620): 62.4 µM (inactive)
- GI50 (SR): 10.4 µM (inactive)
- GI50 (DU-145): 35.2 µM (inactive)
- GI50 (MDA-MB-435): 45.4 µM (inactive)

From ChEMBL document CHEMBL1201862, “PubChem BioAssay data set” (2004)
